A word on the IC50: it is the concentration at which inhibition is half-maximal.

We go through 2 molecules from article PMC3335822 (PLoS ONE, 2012).

In one series the target is T1, Eya3(ED) (Mus musculus, UniProt P97480).
T1 construct: The catalytic domain (ED) of mouse Eyes Absent 3 (Eya3(223–510)) was purified; made in house
T1 sequence (P97480 223-510): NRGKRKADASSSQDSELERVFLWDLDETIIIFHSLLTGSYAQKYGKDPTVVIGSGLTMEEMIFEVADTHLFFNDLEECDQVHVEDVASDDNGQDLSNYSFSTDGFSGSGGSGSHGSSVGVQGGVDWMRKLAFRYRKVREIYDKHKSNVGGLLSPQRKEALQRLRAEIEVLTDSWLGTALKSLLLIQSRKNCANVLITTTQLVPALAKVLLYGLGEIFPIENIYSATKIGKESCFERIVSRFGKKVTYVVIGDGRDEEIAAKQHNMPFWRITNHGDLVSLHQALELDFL
The experiment in a line: pNPP hydrolysis by the catalytic domain of Eya3. Format: biochemical. From the text: The catalytic domain (ED) of mouse Eyes Absent 3 (Eya3(223–510)) was purified as described before. Human Eyes Absent 3 isoform 2 (representing the major species identified in human cell lines by mass spectrometry and residues 127–573 of NM_001990, isoform 1) was sub-cloned into pDEST565 to express a poly-histidine- Glutathione-S-transferase (His-GST) tagged fusion protein with a TVMV protease site. The protein was purified by glutathione-S-transferase affinity chromatography followed by TVMV cleavage, Ni-NTA chromatography, and finally size exclusion chromatography.
The NCI Diversity Set II was obtained from the NCI in 96-well trays from the NIH Molecular Libraries Program and stored as 10 mM stocks in DMSO. An initial manual screen was conducted using the previously described p-nitrophenylphosphate assay and mouse Eya3(223–510) in a reaction mixture containing 20 mM MES pH 6, 2 mM MgCl2, 125 μM inhibitor, 3.4 mM para-nitrophenol phosphate (pNPP) and 0.01 μg/µL enzyme.
(§1) Compounds were dissolved in DMSO and diluted as needed. […] Reactions were incubated at 30°C for 30 minutes and quenched with 100 mM EDTA pH 10. IC50 values were then calculated directly from regression curves using PRISM. All reported values are the mean of two independent experiments.

Series [1] concerns HUVECs. The experiment in a line: HUVEC tubulogenesis assay on Matrigel. Format: cell-based, human. The note with it: for effect on tubulogenesis, in words: up to 7.5 μM. On the procedure: Tubulogenesis assays were performed in 15-well micro-slide (ibidi LLC, Verona WI), using growth factor-reduced matrigel (BD Bioscience, Billerica, MA). The matrix was prepared by loading 10 μl of matrigel in each micro-slide well and allowing it to solidify for 30 minutes at 37°C. HUVECs were trypsinized and resuspended at 100,000 cell/ml in EBM +2.5% FBS. 50 μl (5,000 cell) were loaded on top of the solidified matrigel and the preparation was incubated for 20 hours at 37°C in a humidified incubator in a 5% CO2 atmosphere. Bright field images were taken using an inverted microscope at 2.5× magnification, which allowed imaging of the whole well in two pictures that were later merged in Photoshop. Tubular structures were traced and counted using NeuroJ (NIH, USA). In experiments with inhibitor, the inhibitor was added to the cell suspension before loading. Each sample was loaded in triplicate, and each treatment was repeated for reproducibility.

Series [2] relates to HUVECs. The series can be described thus: HUVEC transwell migration. The note with it: 5 μM. Format: cell-based, human. As for the experimental part:
(§2) Human umbilical vein endothelial cells (HUVECs) were purchased from Lonza (Walkersville, MD) and maintained in the endothelial cell growth medium (PromoCell, Heidelberg, Germany), under a 5% CO2 atmosphere. MCF10A cells from ATCC were stably transfected with either pcDNA 3.2/V5-DEST (vector control), V5-EYA2 or V5-EYA2(mut). Transwell migration experiments were performed as previously described.

For series [3] the following is noted: cited from earlier work.
The next series relates to MCF10A-EYA2 cells. The experiment in a line: Transwell migration of MCF10A cells over-expressing EYA2. The note with it: for effect on migration of MCF10A(EYA2) cells: 7.5 μM. It is filed as cell-based. As for the experimental part:
as §2

Series [4] concerns urate transporter SLC22A12 (URAT1). More on the design: method as in PMID 21272127. Particulars: cited from earlier work.
The next series relates to CYP2C9. Also noted: method as in PMID 20214587. The note with it: cited from earlier work.
A further series has as its target T2, PTP1B (Homo sapiens, UniProt P18031).
T2 construct: made in house
T2 sequence (P18031 1-435): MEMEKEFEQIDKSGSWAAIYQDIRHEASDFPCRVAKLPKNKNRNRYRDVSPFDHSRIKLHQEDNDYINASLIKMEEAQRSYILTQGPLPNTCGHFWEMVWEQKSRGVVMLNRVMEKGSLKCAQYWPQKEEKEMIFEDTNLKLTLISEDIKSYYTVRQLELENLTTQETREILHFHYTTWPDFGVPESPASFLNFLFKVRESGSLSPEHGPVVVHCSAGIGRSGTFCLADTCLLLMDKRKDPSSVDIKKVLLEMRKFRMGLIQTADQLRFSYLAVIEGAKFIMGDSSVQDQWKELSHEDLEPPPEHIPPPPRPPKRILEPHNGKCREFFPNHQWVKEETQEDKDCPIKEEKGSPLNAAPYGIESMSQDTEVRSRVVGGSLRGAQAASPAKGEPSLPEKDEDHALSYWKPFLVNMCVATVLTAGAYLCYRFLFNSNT
The series can be described thus: pNPP hydrolysis by PTP1B. The note with it: substrate pNPP. It is filed as biochemical. As for the experimental part:
The catalytic domain of human Eyes Absent 2 was similarly sub-cloned as a poly-histidine fusion construct in the vector pDEST-527. Fusion protein was purified by Ni-NTA chromatography and followed by size-exclusion chromatography over a Superdex-75 column. The relative purity of protein samples was determined using SDS-PAGE. PTP1B was purified as described previously.
as §1

As for `CCc1oc2ccccc2c1C(=O)c1ccc(O)cc1` [Compound 1a, Benzarone], the IC50 is 19.2 µM on Eya3(ED) (substrate pNPP 3.4 mM, pH 6, 30°C, 30 minutes) and more than 150 µM at PTP1B. Besides, the “reduction in tube formation” value in the series with HUVECs [1] (2.5 μM) is reported as approximately 50%. In the series with HUVECs [1], the “effect on tubulogenesis, in words” value is recorded as “potently inhibited tubulogenesis in a dose-dependent fashion”. The “effect on HUVEC cell motility” value in the series with HUVECs [2] is reported as “attenuated HUVEC cell motility”. The half-life entry in series [3] is reported as “about 3 hours”. Besides, the “reduction of cell motility” value in the series on MCF10A-EYA2 cells (1 μM (lowest concentration tested), MCF10A-EYA2) is listed as “over 50%”. Also, the “effect on migration of MCF10A(EYA2) cells” value in the series on MCF10A-EYA2 cells is “significantly inhibited cell migration”. For the same molecule, in series [4], the “inhibition of URAT1” value is listed as “inhibition of the urate transporter SLC22A12 (URAT1)”. Also, in the series with CYP2C9, the “inhibition of CYP2C9” value is “inhibit CYP2C9”.

For `CCc1oc2ccccc2c1C(=O)c1cc(Br)c(O)c(Br)c1` [Compound 1, Benzbromarone], the “mode of inhibition of Eya3(ED)” value on Eya3(ED) (pNPP substrate titration) was “uncompetitive inhibitor”. Besides, in the series with HUVECs [1], the “effect on tubulogenesis, in words” value is “effective only at the highest concentrations tested (7.5 μM)”. For the same molecule, the “effect on HUVEC cell motility” value in the series on HUVECs [2] is reported as “attenuated HUVEC cell motility”. Besides, the half-life entry in series [3] was “about 3 hours”. The “effect on migration of MCF10A(EYA2) cells” value with MCF10A-EYA2 cells is recorded as “significantly inhibited cell migration”. Besides, the “inhibition of URAT1” value in series [4] is reported as “inhibition of the urate transporter SLC22A12 (URAT1)”. In addition, in the series with CYP2C9, the “inhibition of CYP2C9” value is on record as “inhibit CYP2C9”. In addition, on PTP1B, the IC50 was found to be 53.8 µM.
